Laboratory results: patent US5514694A, “Peptidyl ketoamides” (Georgia Tech Research Corp, priority 1993, dated 1996)
Where two headings read alike, the source gives them in different places.

Legend:
Format in all cases: biochemical
[1] = target: T1, Calpain I from human erythrocytes (Homo sapiens, UniProt P07384); assay: Calpain I inhibition, Suc-Leu-Tyr-AMC hydrolysis (KI); settings: read-out: KI Cal I
T1 construct: Calpain I was purified from human erythrocytes; from tissue; host or cells: human erythrocytes
T1 sequence (P07384 1-714): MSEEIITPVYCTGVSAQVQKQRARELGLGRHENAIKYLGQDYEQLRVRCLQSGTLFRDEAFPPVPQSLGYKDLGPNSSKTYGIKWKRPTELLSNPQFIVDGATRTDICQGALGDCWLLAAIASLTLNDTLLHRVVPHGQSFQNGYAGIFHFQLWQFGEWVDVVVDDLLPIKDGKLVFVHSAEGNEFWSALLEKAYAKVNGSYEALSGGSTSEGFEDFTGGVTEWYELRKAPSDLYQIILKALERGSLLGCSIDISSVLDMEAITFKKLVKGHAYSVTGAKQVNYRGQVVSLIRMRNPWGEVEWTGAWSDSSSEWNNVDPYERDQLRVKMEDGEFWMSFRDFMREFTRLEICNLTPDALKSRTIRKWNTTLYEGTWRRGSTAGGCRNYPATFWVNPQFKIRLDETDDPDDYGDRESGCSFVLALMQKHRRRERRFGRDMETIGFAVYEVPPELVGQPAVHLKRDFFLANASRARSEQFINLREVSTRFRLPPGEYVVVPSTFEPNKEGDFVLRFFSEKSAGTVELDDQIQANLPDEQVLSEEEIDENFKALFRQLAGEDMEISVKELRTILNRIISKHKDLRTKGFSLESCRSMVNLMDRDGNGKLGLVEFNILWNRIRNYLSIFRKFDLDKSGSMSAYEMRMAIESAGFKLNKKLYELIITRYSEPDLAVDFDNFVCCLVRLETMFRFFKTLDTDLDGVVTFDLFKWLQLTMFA
T1 sequence (P04632 1-268 partner): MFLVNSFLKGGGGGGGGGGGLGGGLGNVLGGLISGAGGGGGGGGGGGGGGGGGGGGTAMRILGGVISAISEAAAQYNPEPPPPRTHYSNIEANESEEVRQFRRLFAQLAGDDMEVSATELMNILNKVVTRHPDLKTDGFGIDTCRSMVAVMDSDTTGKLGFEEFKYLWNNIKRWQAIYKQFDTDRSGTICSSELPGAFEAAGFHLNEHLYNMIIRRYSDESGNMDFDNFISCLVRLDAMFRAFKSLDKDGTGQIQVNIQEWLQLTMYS
Protocol: (§1) HEPES, heparin, and A23187 were obtained from Calbiochem. Suc-Leu-Tyr-AMC and chromogenic substrates were obtained from Sigma. Calpain I was purified from human erythrocytes according to the method of Kitahara (Kitahara et al., J. Biochem. 95, 1759-1766) omitting the Blue-Sepharose step. Calpain II from rabbit muscle and cathepsin B were purchased from Sigma. Papain was purchased from Calbiochem.
(§2) Peptide α-ketoamides were assayed as reversible enzyme inhibitors. Various concentrations of inhibitors in Me2 SO were added to the assay mixture which contained buffer and substrate. The reaction was started by the addition of the enzyme and the hydrolysis rates were followed spectrophotometrically or fluorimetrically.
(§3) Calpain I from human erythrocytes and calpain II from rabbit were assayed using Suc-Leu-Tyr-AMC Sasaki et al., J. Biol. Chem. 259, 12489-12494 (1984); incorporated herein by reference!, and the AMC (7-amino-4-methylcoumarin) release was followed fluorimetrically (excitation at 380 nm, and emmision at 460 nm). Calpains were assayed in 25 mM Tris pH=8.0, 10 mM CaC12. Fluorescence was followed using a Gilson FL-1A fluorometer or a Perkin-Elmer 203 Fluorescence spectrometer. Cathepsin B was assayed in 20 mM sodium acetate pH=5.2, 0.5 mM dithiothreitol using Bz-Phe-Val-Arg-p-nitroanilide as substrate. Alternately, cathepsin B was assayed with Z-Arg-Arg-AFC Barrett and Kirschke, Methods Enzymol. 80, 535-561 (1981); incorporated herein by reference!, and the AFC (7-amino-4-trifluoromethylcoumarin) release was followed fluorimetrically (excitation at 400 nm and emmision at 505 nm). Papain was assayed in 100 mM KPO4, 1 mM EDTA, 2.5 mM cysteine pH=6.0 using Bz-Arg-AMC or Bz-Arg-NA Kanaoka et al., Chem. Pharm. Bull. 25, 3126-3128 (1977); incorporated herein by reference! as a substrate. The AMC (7-amino-4-methylcoumarin) release was followed fluorimetrically (excitation at 380 nm, and emmision at 460 nm). Enzymatic hydrolysis rates were measured at various substrate and inhibitor concentrations, and KI values were determined by either Lineweaver-Burk plots or Dixon plots.
(§4) A 0.1M Hepes, 0.5M NaCl, pH 7.5 buffer was utilized for human leukocyte elastase (HLE), porcine pancreatic elastase (PPE), chymotrypsin and cathepsin G. A 0.1 Hepes, 0.01 M CaCl2, pH 7.5 buffer was utilized for trypsin, plasmin, and coagulation enzymes. A 50 mM Tris.HCl, 2 mM EDTA, 5 mM cysteine, pH 7.5 was used as a buffer for papain. A 88 mM KH2 PO4, 12 mM Na2 HPO4, 1.33 mM EDTA, 2.7 mM cysteine, pH 6.0 solution was used as a buffer for cathepsin B. A 20 mM Hepes, 10 mM CaCl2, 10 mM mercatoethanol, pH 7.2 buffer was utilized for calpain I and calpain II.

[2] = target: T2, cathepsin B (Homo sapiens, UniProt P07858); assay: Cathepsin B inhibition (KI); settings: read-out: KI Cat B
T2 construct: purchased Sigma
Protocol: as §1, §2, §3, §4

[3] = target: calpain II from rabbit; assay: Calpain II inhibition, Suc-Leu-Tyr-AMC hydrolysis (KI); settings: for Ki: read-out: KI Cal II
Protocol: as §1, §2, §3, §4

[4] = target: T3, human leukocyte elastase (HLE) (Homo sapiens, UniProt P08246); assay: HLE inhibition, MeO-Suc-Ala-Ala-Pro-Val-NA hydrolysis; settings: Table 4, Z-Leu--AA--CONH-R
T3 sequence (P08246 30-267): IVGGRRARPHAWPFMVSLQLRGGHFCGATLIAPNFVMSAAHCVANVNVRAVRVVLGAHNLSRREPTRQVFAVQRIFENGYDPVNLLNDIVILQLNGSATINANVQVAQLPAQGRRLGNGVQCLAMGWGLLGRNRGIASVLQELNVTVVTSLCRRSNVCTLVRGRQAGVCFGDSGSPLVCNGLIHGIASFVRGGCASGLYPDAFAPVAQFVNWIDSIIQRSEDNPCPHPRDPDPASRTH
Protocol: as §2, §4
HLE and PPE were assayed with MeO-Suc-Ala-Ala-Pro-Val-NA and Suc-Ala-Ala-Ala-NA, respectively Nakajima et al., J. Biol. Chem. 254, 4027-4032 (1979); incorporated herein by reference!. Human leukocyte cathepsin G and chymotrypsin Aα were assayed with Suc-Val-Pro-Phe-NA Tanaka et al., Biochemistry 24, 2040-2047 (1985); incorporated herein by reference!. The hydrolysis of peptide 4-nitroanilides was measured at 410 nm ε410 =8800 M^-1 cm^-1; Erlanger et al., Arch. Biochem. Biophys. 95, pp 271-278 (1961); incorporated herein by reference!. Trypsin, thrombin, human plasma kallikrein, porcine pancreatic kallikrein, human factor XIa, and human plasmin were assayed with Z-Arg-SBzl or Z-Gly-Arg-SBu-i McRae et al., Biochemistry 20, 7196-7206 (1981); incorporated herein by reference!. All peptide thioester hydrolysis rates were measured with assay mixtures containing 4,4'-dithiodipyridine ε324 =19800 M^-1 cm^-1; Grasetti & Murray, Arch. Biochem. Biophys. 119, 41-49 (1967); incorporated herein by reference!.

Compound	Ki ([1]; Table 1, Z-Leu--AA--CONHR)	Ki ([3]; Table 1, Z-Leu--AA--CONHR)	Ki ([2]; Table 1, Z-Leu--AA--CONHR)	further results
CC(C)CC(NC(=O)C(c1ccccc1)c1ccccc1)C(=O)NC(Cc1ccccc1)C(=O)C(=O)NCc1ccccn1 (stereo not drawn) [Ph2 CH-CO-Leu-Phe-CONH-CH2 -2-pyridyl, Ph2 CHCO-Leu-Phe-CONH--CH2 -2-Pyridyl]				Ki ([1]; Table 3, M1 CO-Leu--AA--CONH-R): 1.1 µM; Ki ([2]; Table 3, M1 CO-Leu--AA--CONH-R): 2.2 µM; Ki ([3]; Table 3, M1 CO-Leu--AA--CONH-R): 0.36 µM
CCC(NC(=O)C(CC(C)C)NC(=O)C(c1ccccc1)c1ccccc1)C(=O)C(=O)NCCCN1CCOCC1 (stereo not drawn) [Ph2 CHCO-Leu-Abu-CONH--N--(CH2)3 -Morpholinyl]				Ki ([1]; Table 3, M1 CO-Leu--AA--CONH-R): 0.8 µM; Ki ([2]; Table 3, M1 CO-Leu--AA--CONH-R): 2.3 µM; Ki ([3]; Table 3, M1 CO-Leu--AA--CONH-R): 0.11 µM
CC(C)CC(NC(=O)C(c1ccccc1)c1ccccc1)C(=O)NC(Cc1ccccc1)C(=O)C(=O)NCCCN1CCOCC1 (stereo not drawn) [Ph2 CHCO-Leu-Phe-CONH--(CH2)3 -4-Morpholinyl]				Ki ([1]; Table 3, M1 CO-Leu--AA--CONH-R): 0.76 µM; Ki ([2]; Table 3, M1 CO-Leu--AA--CONH-R): 3.8 µM; Ki ([3]; Table 3, M1 CO-Leu--AA--CONH-R): 0.074 µM
CCC(NC(=O)C(CC(C)C)NC(=O)OCc1ccccc1)C(=O)C(=O)NCCc1c[nH]c2ccccc12 (stereo not drawn) [Z-Leu-Abu-CONH-(CH2)2 -3-indolyl, Z-Leu-Abu-CONH--(CH2)2 -3-Indolyl]	0.3 µM	0.05 µM		IC50 [4]: 48 µM
CCC(NC(=O)[C@H](CC(C)C)NC(=O)OCc1ccccc1)C(=O)C(=O)NCCN1CCOCC1 (stereo partly drawn) [Z-Leu-Abu-CONH-(CH2)2 -4-morpholinyl, Z-Leu-Abu-CONH--(CH2)2 -4-Morpholinyl]	1 µM		2.5 µM	
CC[C@H](NC(=O)[C@H](CC(C)C)NC(=O)OCc1ccccc1)C(=O)C(=O)NCCc1ccccc1OC [Z-Leu-Abu-CONH-(CH2)2 C6 H4 (2-OCH3), Z-Leu-Abu-CONH--(CH2)2 C6 H4 (2-OCH3)]	0.13 µM		0.63 µM	
CCC(NC(=O)C(CC(C)C)NC(=O)OCc1ccccc1)C(=O)C(=O)NCCc1ccc(OC)cc1 (stereo not drawn) [Z-Leu-Abu-CONH-(CH2)2 C6 H4 (4-OCH3), Z-Leu-Abu-CONH--(CH2)2 C6 H4 (4-OCH3)]	0.12 µM	0.046 µM	0.44 µM	
CC[C@H](NC(=O)[C@H](CC(C)C)NC(=O)OCc1ccccc1)C(=O)C(=O)NCCOCCO [Z-Leu-Abu-CONH-(CH2)2 O(CH2)2 OH, Z-Leu-Abu-CONH--(CH2)2 O(CH2)2 OH]			2 µM	
CCC(NC(=O)C(CC(C)C)NC(=O)OCc1ccccc1)C(=O)C(=O)NCCO (stereo not drawn) [Z-Leu-Abu-CONH-(CH2)2 OH, Z-Leu-Abu-CONH--(CH2)2 OH]	0.8 µM		4.5 µM	
CCC(NC(=O)C(CC(C)C)NC(=O)OCc1ccccc1)C(=O)C(=O)NCCCn1ccnc1 (stereo not drawn) [Z-Leu-Abu-CONH-(CH2)3 -1-imidazolyl, Z-Leu-Abu-CONH--(CH2)3 -1-Imidazolyl]	0.29 µM	0.068 µM	9.9 µM	
CC[C@H](NC(=O)[C@H](CC(C)C)NC(=O)OCc1ccccc1)C(=O)C(=O)NCCCCCO [Z-Leu-Abu-CONH-(CH2)5 OH, Z-Leu-Abu-CONH--(CH2)5 OH]		0.051 µM	0.28 µM	
CCC(NC(=O)[C@H](CC(C)C)NC(=O)OCc1ccccc1)C(=O)C(=O)NCCc1cccn1C (stereo partly drawn) [Z-Leu-Abu-CONH--(CH2)2-2-(N-Methylpyrrole)]		0.076 µM	1.2 µM	
CCC(NC(=O)C(CC(C)C)NC(=O)OCc1ccccc1)C(=O)C(=O)NCCCN1CCc2ccccc2C1 (stereo not drawn) [Z-Leu-Abu-CONH--(CH2)3 -2-Tetrahydroisoquinolinyl]	0.31 µM		8 µM	
CCC(NC(=O)C(CC(C)C)NC(=O)OCc1ccccc1)C(=O)C(=O)NCc1nccc2ccccc12 (stereo not drawn) [Z-Leu-Abu-CONH-CH2 -1-isoquinolinyl, Z-Leu-Abu-CONH--CH2 -1-Isoquinolinyl]	0.25 µM		0.3 µM	
CCC(NC(=O)C(CC(C)C)NC(=O)OCc1ccccc1)C(=O)C(=O)NCc1cccnc1 (stereo not drawn) [Z-Leu-Abu-CONH-CH2 -3-pyridyl, Z-Leu-Abu-CONH--CH2 -3-Pyridyl]		0.12 µM	1.2 µM	inhibition of calpain II, in words [3]: substantially poorer inhibitors
CC(C)C[C@H](NC(=O)OCc1ccccc1)C(=O)NC(Cc1ccccc1)C(=O)C(=O)NCc1nccc2ccccc12 (stereo partly drawn) [Z-Leu-Phe-CONH-CH2 -1-isoquinolinyl, Z-Leu-Phe-CONH--CH2 -1-Isoquinolinyl]	2.4 µM		9.6 µM	
CC(C)CC(NC(=O)OCc1ccccc1)C(=O)NC(Cc1ccccc1)C(=O)C(=O)NCc1ccccn1 (stereo not drawn) [Z-Leu-Phe-CONH-CH2 -2-pyridyl, Z-Leu-Phe-CONH--CH2 -2-Pyridyl]		0.65 µM	0.27 µM	
